“Also recorded” adds a separate entry of the source. Where a SMILES comes first, the peptide text is derived from it. [ ]: non-standard residue; d: D form. Dmt = Cc1cc(O)cc(C)c1C[C@H](N)C(=O)O
How the values were obtained:
[1] = system: Human LDL (low density lipoprotein); experiment: LDL oxidation induced by CuSO4 (conjugated dienes); assay type: biochemical; conditions: for rate of LDL oxidation (rate of formation of conjugated dienes): peptides 100 μM
Procedure: Human LDL (low density lipoprotein) was prepared fresh from stored plasma. LDL oxidation was induced catalytically by the addition of […] CuSO4, and the formation of conjugated dienes was monitored at […] for 5 h at 37° C. (B. Moosmann and C. Behl, Mol Pharmacol., 61, 260-268 (2002)).

[2] = system: isolated guinea pig hearts; experiment: HNE-modified proteins in isolated hearts, brief ischemia-reperfusion (Langendorff); conditions: 100 nM SS-02, 1 nM SS-31
Procedure: Isolated guinea pig hearts were perfused in a retrograde manner in a Langendorff apparatus and subjected to various intervals of ischemia-reperfusion. Hearts were then fixed immediately and embedded in paraffin. Immunohistochemical analysis of 4-hydroxy-2-nonenol (HNE)-modified proteins in the paraffin sections was carried out using an anti-HNE antibody.
(A) Immunohistochemical analysis of 4-hydroxy-2-nonenol (HNE)-modified proteins in paraffin sections from guinea pig hearts aerobically perfused 30 min with (a) buffer; (b) 100 nM SS-02; (c) 100 nM SS-20 and (d) 1 nM SS-31, then subjected to 30 min ischemia and reperfused for 90 min with same peptides. Tissue slices were incubated with […] antibody. (e) Background control: staining without primary antibody.
(B) Immunohistochemical analysis of HNE-modified proteins in paraffin sections from guinea pig hearts aerobically perfused 30 min with buffer; then subjected to 30 min ischemia and reperfused with (a) buffer; (b) 100 nM SS-02; (c) 100 nM SS-20 and (d) 1 nM SS-31 for 90 min with same peptides. Tissue slices were incubated with anti-HNE antibody. (e) Background control staining without primary antibody.

[3] = system: isolated mouse liver mitochondria; experiment: H2O2 production by isolated mitochondria, luminol chemiluminescence; assay type: biochemical; conditions: for amount of H2O2 generated (AUC over 20 min): spontaneous, SS peptides 100 μM
Procedure: Because mitochondria are a major source of ROS production, the effect of SS-02 on H2O2 formation in isolated mitochondria under basal conditions as well as after treatment with antimycin, a complex III inhibitor was examined. Livers were harvested from mice and homogenized in ice-cold buffer and centrifuged at 13800×g for 10 m. The pellet was washed once and then re-suspended in 0.3 ml of wash butter and placed on ice until use H2O2 was measured using luminol chemiluminescence as described previously (Y. Li, H. Zhu, M. A. Trush, Biochim. Biophys. Acta 1428, 1-12 (1999)). 0.1 mg mitochondrial protein was added to 0.5 ml potassium phosphate buffer (100 mM, pH 8.0) in the absence or presence of SS peptides (100 μM). 25 mM luminol and 0.7 IU horseradish peroxidase were added, and chemilumunescence was monitored with a Chronolog Model 560 aggregometer (Havertown, Pa.) for 20 min at 37° C. The amount of H2O2 produced was quantified as the area under the curve (AUC) over 20 min, and all data were normalized to AUC produced by mitochondria alone.
H2O2 was measured using luminol chemiluminescence as described previously (Y, Li, H. Zhu, M. A. Trush, Biochim. Biophys. Acta 1428, 1-12 (1999)). 0.1 mg mitochondrial protein was added to 0.5 ml potassium phosphate buffer (100 mM, pH 8.0) in the absence or presence of SS-31. 25 mM luminol and 0.7 IU horseradish peroxidase were added, and chemilumunescence was monitored with a Chronolog Model 560 aggregometer (Havertown, Pa.) for 20 min at 37° C. The amount of H2O2 produced was quantified as the area under the curve (AUC) over 20 min, and all data were normalized to AUC produced by mitochondria alone.

[4] = system: N2A cells; experiment: Cell viability, MTS assay, cells treated with tBHP; assay type: cell-based, murine; conditions: for EC50, increase of cell survival / cell survival (MTS): tBHP 0.5 or 1 mM 40 min, then peptide 4 hr
Procedure: (§1) Cells were washed twice and replaced with medium alone or medium containing varying concentrations of SS-02 or SS-31 for 4 hr. Intracellular ROS was measured by carboxy-H2DCFDA (Molecular Probes, Portland, Oreg.). Cell death was assessed by a cell proliferation assay (MTS assay, Promega, Madison, Wis.).
(§2) Neuronal N2A and SH-SY5Y cells were plated in 96-well plate at a density of 1×10^4/well and allowed to grow for 2 days before treatment with t-butyl hydroperoxide (tBHP) (0.05-0.1 mM) with or without SS-31 (10^−12 M to 10^−9 M for 24 h. Cell death was assessed by a cell proliferation assay (MTS assay, Promega, Madison, Wis.).

[5] = Linoleic acid peroxidation induced by ABAP (conjugated dienes); conditions: for rate of linoleic acid peroxidation (slope of diene formation): peptides 100 μM
[6] = system: N2A cells; experiment: Intracellular ROS (DCF fluorescence) in cells treated with tBHP; assay type: cell-based, murine; conditions: for EC50, reduction of intracellular ROS / intracellular ROS: tBHP 0.5 or 1 mM 40 min, then peptide 4 hr
Procedure: FIG. 22A-22C. […] (A) N2A cells were loaded with DCFDA, and then exposed to 100 μM tBHP alone, or with SS-31. Intracellular ROS was quantified by the formation of fluorescent DCF. Results shown are mean values (n=3). (B)(a-c) N2A cells were plated in glass bottom dishes and treated with 50 μM tBHP, alone or with 1 nM SS-31, for 6 h. Cells were loaded with DCFDA (10 μM) and imaged by confocal laser scanning microscopy using ex/em of 495/525 nm. (C) Effect of 1 nM SS-31 in reducing intracellular ROS induced by 50 μM tBHP (*P<0.001 compared to untreated cells; *P<0.05 compared to tBHP alone).
as §1
Intracellular ROS was evaluated using the fluorescent probe DCFH-DA (5-(and -6)-carboxy-2′,7′-dichlorodihydrofluorescein diacetate). DCFH-DA enters cells passively and is then deacetylated to nonfluorescent DCFH. DCFH reacts with ROS to form DCF, the fluorescent product. N2A cells in 96 sell plates were washed with HBSS and loaded with 10 μM of DCFDA for 30 min. […]. at 37° C. Cells were washed 3 times with BSS and exposed to 0.1 mM of t-BHP, alone or with SS-31. The oxidation of DCF was monitored in real time by a fluorescence microplate reader (Molecular Devices) using 485 nm for excitation and 530 nm for emission.
N2A cells in glass bottom dish were treated with 0.1 mM t-BHP, alone or with 1 nM SS-31, for 6 h. Cells were then loaded with 10 μm of dichlorofluorescin (ex/em=485/530) for 30 min at 37° C., 5% CO2. Then cells were subjected 3 times wash with HBSS and stained with 20 nM of Mitotracker TMRM (ex/em=550/575 nm) for 15 min at 37° C. and examined by confocal laser scanning microscopy.

[7] = system: SH-SY5Y cells; experiment: Cell viability, MTS assay, cells treated with tBHP; assay type: cell-based, human; conditions: t-BHP 0.05-0.1 mM, 24 h
Procedure: as §2

[8] = peptide only during 90 min reperfusion
[9] = peptide perfused 30 min before 30 min ischemia and during 90 min reperfusion

Molecule	rate of LDL oxidation (rate of formation of conjugated dienes) [1]	lipid peroxidation (HNE-modified proteins) [2, 8]	lipid peroxidation (HNE-modified proteins) [2, 9]	amount of H2O2 generated (AUC over 20 min) [3]	EC50, increase of cell survival [4]	cell survival (MTS) [4]	rate of linoleic acid peroxidation (slope of diene formation) [5]	EC50, reduction of intracellular ROS [6]	intracellular ROS [6]	also measured
2′,6′-Dmt-Arg-Phe-Lys-NH2 [SS-02]	reduced rate of LDL oxidation	reduced lipid peroxidation	reduced lipid peroxidation	significantly reduced	nM range	increased cell survival	reduced the rate of linoleic acid peroxidation	nM range	dose-dependently reduced intracellular ROS	rate of LDL oxidation ([1]; varying concentrations, 10 mM CuSO4): dose-dependently inhibited; peroxidation of linoleic acid ([5]; varying concentrations): dose-dependently inhibited
Cc1cc(O)cc(C)c1C[C@H](NC(=O)[C@H](N)CCCNC(=N)N)C(=O)N[C@@H](CCCCN)C(=O)N[C@@H](Cc1ccccc1)C(N)=O [SS-31, D-Arg-2′6′-Dmt-Lys-Phe-NH2] (H-[dR][Dmt]KF-NH2; N-terminus assumed)	reduced rate of LDL oxidation	reduced lipid peroxidation	reduced lipid peroxidation	significantly reduced	nM range	increased cell survival	reduced the rate of linoleic acid peroxidation	nM range	dose-dependently reduced intracellular ROS	concentration achieving complete protection against t-BHP [7]: 1 nM; t-BHP-induced cytotoxicity ([7]; concurrent treatment): dose-dependent reduction; production of H2O2 induced by antimycin ([3]; dose response): dose-dependently reduced; spontaneous production of H2O2 ([3]; dose response): dose-dependently reduced; concentration achieving complete protection against t-BHP ([4]; t-BHP 0.05-0.1 mM, 24 h): 1 nM; t-BHP-induced cytotoxicity ([4]; t-BHP 0.05-0.1 mM, 24 h, concurrent treatment): dose-dependent reduction; DCF fluorescence (fluorescent microscopy) ([6]; 50 μM tBHP, 1 nM SS-31, 6 h): significantly reduced; reduction of ROS production ([6]; 100 μM tBHP, 1 nM SS-31): > 50%; rate of ROS accumulation/production ([6]; 0.1 mM (100 μM) t-BHP, over 4 h): dose-dependently inhibited; also recorded: dose-dependently reduced; ROS accumulation (DCF fluorescence, confocal) ([6]; 0.1 mM t-BHP, 1 nM SS-31, 6 h): reduced ROS accumulation

Reference: patent US9950026B2, “Methods for reducing oxidative damage” (Cornell Research Foundation, Inc., priority 2004, dated 2018)
